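Briefly, cells in 96-well plates were exposed to five compound concentrations for 48 h, and endpoints were estimated by linear interpolation. Abbreviation: GI50, concentration required for 50% inhibition of growth. At the TGI there is no net growth.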 Calls of active or inactive are those of the source. Rule as the data show it: active = GI50 below about 0.43 µM; inactive = the rest.

Some test systems named below: OVCAR-5 ovarian; TK-10 renal; HOP-92 NSCLC; EKVX NSCLC; DU-145 prostate; U251 CNS; MCF7 breast.
What all share (assay): NCI tumour cell line growth inhibition, 48 h

`O=P(O)(O)CN1CCNCCN(CP(=O)(O)O)CCN(CP(=O)(O)O)CCNCC1`: the outcome with OVCAR-5 ovarian, with TK-10 renal, in the assay on HOP-92 NSCLC, in the assay on EKVX NSCLC, in the assay with DU-145 prostate and in the assay on U251 CNS was inactive. In addition, the GI50 in the assay with MCF7 breast was 99900 µM.

As for `CC(=O)OCC1OC(n2c(N)c(C#N)c(-c3cccc(Cl)c3)c(C#N)c2=S)C(OC(C)=O)C(OC(C)=O)C1OC(C)=O` (stereo not given), the TGI in the assay on OVCAR-5 ovarian was greater than 100 µM; in the assay with TK-10 renal, 54.2 µM; in the assay with HOP-92 NSCLC, greater than 100 µM; with EKVX NSCLC it was greater than 100 µM; in the assay with DU-145 prostate, 82 µM; with U251 CNS, 78.9 µM. The TGI in the assay on MCF7 breast was greater than 100 µM.

For the compound `CN(/N=C/c1ccc(Cl)cc1)C1=NCCCCN1`, the TGI with OVCAR-5 ovarian, with TK-10 renal, in the assay with HOP-92 NSCLC, with EKVX NSCLC, with DU-145 prostate and with U251 CNS was greater than 100 µM throughout. The compound further had a TGI in the assay on MCF7 breast greater than 100 µM.

For the compound `C1=CN2C[n+]3ccc4ccccc4c3N=C2c2ccccc21`, the TGI worked out at 47 µM in the assay on OVCAR-5 ovarian; 43 µM with TK-10 renal; 7.92 µM in the assay on HOP-92 NSCLC; 38.8 µM in the assay with EKVX NSCLC; 25.2 µM in the assay on DU-145 prostate; 10.2 µM in the assay on U251 CNS. This compound also came in with a TGI in the assay on MCF7 breast of 3.71 µM.

For `O=c1[nH]nc(Cc2ccc(Cl)cc2)n1/N=C/c1c[nH]c2ccccc12`, the TGI in the assay with OVCAR-5 ovarian, in the assay on TK-10 renal, in the assay on HOP-92 NSCLC, in the assay with EKVX NSCLC, in the assay on DU-145 prostate and in the assay with U251 CNS was greater than 100 µM throughout. For the same compound, in the assay on MCF7 breast, the TGI was greater than 100 µM.
